These molecules were tested on PC3 cells (assay: NAMPT Cell Proliferation Assay). Details: Homo sapiens, PC-3, 120 h, 5 days incubation, cell viability by Cell Titer Glo.
Type: cell-based
Protocol: NAMPT Cell Proliferation Assay
PC3 cells were seeded in 96-well black plates (Corning #3904) at 500 cells/well in 90 μl of RPMI media containing 10% heat-inactivated FBS and incubated overnight at 37° C. and 5% CO2 to allow cells to attach to wells. The following day, test compounds were serially diluted in neat DMSO to 1000× final concentrations prior to dilution with RPMI media to 10× and 1% DMSO. Ten μL of the 10× compounds were then transferred to wells containing cells to produce a dose response of 10-fold dilutions from 10 μM to 1×10^−5 μM. Cells were incubated for 5 days at 37° C. and 5% CO2, then cell viability was measured using Cell Titer Glo reagent (Promega #G7571). Percent inhibition values were calculated and fitted to a sigmoidal dose response curves using Assay Explorer software to determine IC50s.

SMILES	IC50 [nM]
Cn1cc2c(C(=O)N3CCC(c4ccc(NC(=O)NCc5ccn6ccnc6c5)cc4)CC3)cccc2n1 [Example 1149, 1-(imidazo[1,2-a]pyridin-7-ylmethyl)-3-(4-{1-[(2-methyl-2H-indazol-4-yl)carbonyl]piperidin-4-yl}phenyl)urea]	2.62
N#Cc1ccc(C(=O)N2CCC(c3ccc(C(=O)NCc4ccn5ccnc5c4)cc3)CC2)c(Cl)c1 [Example 934, 4-[1-(2-chloro-4-cyanobenzoyl)piperidin-4-yl]-N-(imidazo[1,2-a]pyridin-7-ylmethyl)benzamide]	6.38
COc1cc(C(=O)N2CCC(c3ccc(NC(=O)NCc4ccn5ccnc5c4)cc3)CC2)ncc1C [Example 1136, 1-(imidazo[1,2-a]pyridin-7-ylmethyl)-3-(4-{1-[(4-methoxy-5-methylpyridin-2-yl)carbonyl]piperidin-4-yl}phenyl)urea]	3.02
O=C(NCc1ccn2ccnc2c1)c1ccc(C2CCN(C(=O)COC3CCCCC3)CC2)cc1 [Example 971, 4-{1-[(cyclohexyloxy)acetyl]piperidin-4-yl}-N-(imidazo[1,2-a]pyridin-7-ylmethyl)benzamide]	22.6
CC(C)C(=O)N1CCC(c2ccc(C(=O)NCc3cn4ccnc4cn3)s2)CC1 [Example 837, N-(imidazo[1,2-a]pyrazin-6-ylmethyl)-5-[1-(2-methylpropanoyl)piperidin-4-yl]thiophene-2-carboxamide]	2.77
CN(C)C(=O)N1CCC(c2ccc(C(=O)NCc3ccn4ccnc4c3)cc2)CC1 [Example 1077, 4-{4-[(imidazo[1,2-a]pyridin-7-ylmethyl)carbamoyl]phenyl}-N,N-dimethylpiperidine-1-carboxamide]	69.1

More lines, in order of falling IC50, values ahead:

IC50 [nM]	SMILES
25.8	O=C(NCc1ccn2ccnc2c1)Nc1ccc(C2CCN(C(=O)c3ccc4snnc4c3)CC2)cc1 [Example 1057, 1-{4-[1-(1,2,3-benzothiadiazol-5-ylcarbonyl)piperidin-4-yl]phenyl}-3-(imidazo[1,2-a]pyridin-7-ylmethyl)urea]
6.24	CC(C)CCC(=O)N1CCC(c2ccc(NC(=O)NCc3ccn4ccnc4c3)c(F)c2)CC1 [Example 1072, 1-{2-fluoro-4-[1-(4-methylpentanoyl)piperidin-4-yl]phenyl}-3-(imidazo[1,2-a]pyridin-7-ylmethyl)urea]
4.61	CC1Cc2cc(C(=O)N3CCC(c4ccc(NC(=O)NCc5ccn6ccnc6c5)cc4)CC3)ccc2O1 (stereo not shown) [Example 1046, 1-(imidazo[1,2-a]pyridin-7-ylmethyl)-3-(4-{1-[(2-methyl-2,3-dihydro-1-benzofuran-5-yl)carbonyl]piperidin-4-yl}phenyl)urea]
4.24	N#Cc1ccsc1C(=O)N1CCC(c2ccc(C(=O)NCc3ccn4ccnc4c3)cc2)CC1 [Example 1103, 4-{1-[(3-cyanothiophen-2-yl)carbonyl]piperidin-4-yl}-N-(imidazo[1,2-a]pyridin-7-ylmethyl)benzamide]
3.52	O=C(NCc1ccn2ccnc2c1)Nc1ccc(C2CCN(C(=O)C3Cc4ccccc4O3)CC2)cc1 (stereo not shown) [Example 1024, 1-{4-[1-(2,3-dihydro-1-benzofuran-2-ylcarbonyl)piperidin-4-yl]phenyl}-3-(imidazo[1,2-a]pyridin-7-ylmethyl)urea]
2.49	CCc1nc(C(=O)N2CCC(c3ccc(NC(=O)NCc4ccn5ccnc5c4)cc3)CC2)cs1 [Example 1058, 1-(4-{1-[(2-ethyl-1,3-thiazol-4-yl)carbonyl]piperidin-4-yl}phenyl)-3-(imidazo[1,2-a]pyridin-7-ylmethyl)urea]
1.3	C=CCn1nc(C)cc1C(=O)N1CCC(c2ccc(NC(=O)NCc3ccn4ccnc4c3)cc2)CC1 [Example 1056, 1-(imidazo[1,2-a]pyridin-7-ylmethyl)-3-[4-(1-{[3-methyl-1-(prop-2-en-1-yl)-1H-pyrazol-5-yl]carbonyl}piperidin-4-yl)phenyl]urea]

From US9187472B2 (AbbVie Inc., priority 2012, dated 2015)
